Data published in PubChem BioAssay AID1996.
Converted amounts (≈) assume the structure as drawn.

Settings: buffer; pH 7.4; 200.0 µM

Row | Compound | solubility kinetic
1 | CC1=C(C(=O)OCC2CCCCC2)C(c2ccc(O)cc2)NC(=O)N1 (centres undefined) | 3.4 µg/mL (≈ 9.87 µM)
2 | COc1ccc(Cl)cc1C(=O)NCc1ccc2c(c1)OCO2 | 34.3 µg/mL (≈ 107 µM)
3 | CCCc1ccc2oc(C(=O)N3CCC(COC)C3)c(C)c2c1 (centres undefined) | 24.7 µg/mL (≈ 78.3 µM)
4 | Cc1cccc(NC(=O)c2ccc(Cl)nc2)n1 | > 37.2 µg/mL
5 | Cc1cccc(C)c1N1CCN(c2c(C)cccc2C)CC1 | < 0.3 µg/mL
6 | CC1CCCC(C)N1C(=O)Cn1cnc2cc([N+](=O)[O-])ccc2c1=O (centres undefined) | > 51.7 µg/mL
7 | CCCOc1ccc(S(=O)(=O)N2CCOCC2)cc1[N+](=O)[O-] | > 49.6 µg/mL
8 | CN1CCN(C(=O)COc2ccc3ccccc3c2)CC1 | > 42.7 µg/mL
9 | COc1cccc(CNC(=O)c2ccc(C3SCCS3)cc2)c1 | 10.5 µg/mL (≈ 30.4 µM)
10 | Cl.NCC(O)c1ccc(O)cc1 (centres undefined) | > 28.4 µg/mL
11 | CC(=O)c1ccc(N2CCN(C(=O)c3ccc(S(=O)(=O)NCc4ccco4)cc3)CC2)cc1 | 4.9 µg/mL (≈ 10.5 µM)
12 | CC(=O)Nc1ccc(S(=O)(=O)N2CC(=O)NC(=O)C2)cc1 | > 46.7 µg/mL
13 | O=C1NC(=O)N(Cc2ccccc2)C1=O | > 30.6 µg/mL
14 | CCC(C)Nc1nc2c(c(=O)[nH]c(=O)n2C)n1CCCc1ccccc1 (centres undefined) | 36.9 µg/mL (≈ 104 µM)
15 | O=C(Cc1ccc([N+](=O)[O-])cc1)NC1CCCCCC1 | 15 µg/mL (≈ 54.3 µM)
16 | O=C(C1CC(=O)N(c2ccc(F)cc2)C1)N1CCOCC1 (centres undefined) | 41.5 µg/mL (≈ 142 µM)
17 | CCOC(=O)COc1nc(-c2ccccc2)cc(-c2ccco2)c1C#N | < 0.4 µg/mL
18 | Nc1ccc(C(=O)Nc2nccs2)cc1 | > 32.9 µg/mL
19 | CN(C)C1(CNC(=O)Nc2ccccc2)CCCCC1 | > 41.3 µg/mL
20 | O=C(Cc1cccs1)N1CCN=C1SCc1cccc(F)c1 | 12.6 µg/mL (≈ 37.7 µM)

Row | Compound | solubility kinetic
21 | Nc1ccc(Oc2ccc(F)cc2)nc1 | 27.6 µg/mL (≈ 135 µM)
22 | O=C(O)CCCN1C(=O)/C(=C/c2ccncc2)SC1=S | > 46.3 µg/mL
23 | CC1(C)CC(=O)C(N=Nc2cccc([N+](=O)[O-])c2)=C(O)C1 | > 43.4 µg/mL
24 | O=C1CSC(=Nc2ccc(Cl)cc2)N1 | 33.7 µg/mL (≈ 149 µM)
25 | COc1cc2c(cc1OC)/C(=C/C(=O)c1ccccc1F)NCC2 | 40.4 µg/mL (≈ 123 µM)
26 | COc1ccc(OCCC(=O)OCC(=O)NCCc2ccccc2)cc1 | 52.8 µg/mL (≈ 148 µM)
27 | CC1CN(c2ccccc2)c2nc3c(c(=O)[nH]c(=O)n3C)n2C1 (centres undefined) | > 46.7 µg/mL
28 | CC(OC(=O)c1cccc(O)c1)C(=O)N(C)Cc1ccccc1 (centres undefined) | > 47 µg/mL
29 | Cc1cc(N)nc(SCC(=O)N2C(C)CCCC2C)n1 (centres undefined) | 38.3 µg/mL (≈ 130 µM)
30 | COc1ccc(OC)c(NC(=O)CCc2c[nH]c3ccccc23)c1 | 10.9 µg/mL (≈ 33.6 µM)
31 | N#Cc1ccc(COc2cccc3cccnc23)cc1 | 32.4 µg/mL (≈ 124 µM)
32 | CCOc1nc(Nc2ccc(Cl)cc2)nc(OCC)n1 | 3.5 µg/mL (≈ 11.9 µM)
33 | CCC(CC)C(=O)NCc1ccc(OC)cc1 | 32.7 µg/mL (≈ 139 µM)
34 | C=CCSc1nc2ccccc2c(=O)n1C1CCOC(C)(C)C1 (centres undefined) | 8.6 µg/mL (≈ 26 µM)
35 | O=C(NC1CCN(Cc2ccc(Cl)c(Cl)c2)CC1)c1ccccc1 | 1.9 µg/mL (≈ 5.23 µM)
36 | N[C@@H](Cc1ccccc1)C(=O)N1C[C@H]2C[C@@H](C1)c1cccc(=O)n1C2 | 49 µg/mL (≈ 145 µM)
37 | O/N=C/c1ccnc(SCc2ccccc2)n1 | 31.4 µg/mL (≈ 128 µM)
38 | O=C(NCCOc1ccc(Cl)cc1)c1ccc2c(c1)OCCO2 | 6.3 µg/mL (≈ 18.9 µM)
39 | COc1cc(OC)c(CNC2CCCCCC2)cc1Br | > 51.3 µg/mL
40 | C[C@@H](C(=O)Nc1ccccc1N1CCOCC1)N1C(=O)C2CCCCC2C1=O (some centres undefined) | > 57.8 µg/mL

Row | Compound | solubility kinetic
41 | COc1ccc(C(=O)Nc2cc(-c3ccc(C)cc3)no2)cc1 | < 0.3 µg/mL
42 | O=C(Nc1cc(=O)[nH]c(=O)[nH]1)c1cccc(C(F)(F)F)c1 | > 44.9 µg/mL
43 | O=c1onc(-c2ccccc2)c2ccccc12 | 27.7 µg/mL (≈ 124 µM)
44 | CSc1nccc(NC(=O)c2cccc(Br)c2)n1 | 2.5 µg/mL (≈ 7.71 µM)
45 | Cc1ccccc1-c1nc2cc(NC(=O)C3CC3)ccc2o1 | 0.8 µg/mL (≈ 2.74 µM)
46 | COCCOC(=O)c1[nH]c2c(c1C)C(=O)CC(c1ccc(OC)cc1)C2 (centres undefined) | 1.6 µg/mL (≈ 4.48 µM)
47 | CN(C(=O)c1ccc(F)cc1)c1ccc(OCC(=O)Nc2ccccc2C(=O)O)cc1 | > 63.4 µg/mL
48 | O=C(NCCc1ccccc1)C1CC1 | > 28.4 µg/mL
49 | Cc1nc(-c2cc(-c3nc(-c4ccc(C(C)(C)C)cc4)no3)no2)cs1 | < 0.2 µg/mL
50 | Cc1cc(C)cc(NC(=O)Nc2ccc(N3CCCCC3)cc2)c1 | 0.3 µg/mL (≈ 0.928 µM)
51 | N#C/C(=C\c1c(F)cccc1Cl)C(=O)NC1CC1 | > 39.7 µg/mL
52 | O=C(NCC(c1ccco1)N1CCCC1)c1cc(S(=O)(=O)N2CCCCC2)ccc1Cl (centres undefined) | > 69.9 µg/mL
53 | N/C(=N\OC(=O)c1ccc([N+](=O)[O-])cc1)c1ccccn1 | 3.2 µg/mL (≈ 11.2 µM)
54 | CCC(C)NC(=O)CN1C(=O)C(CC)Sc2ccccc21 (centres undefined) | > 46 µg/mL
55 | Cc1ccc2oc(=O)c(/C=C(\O)c3ccco3)nc2c1 | 31.7 µg/mL (≈ 118 µM)
56 | NC(=O)C1CCN(S(=O)(=O)c2ccccc2[N+](=O)[O-])CC1 | 39.8 µg/mL (≈ 127 µM)
57 | CCCCC(=O)NCc1ccccc1Cl | > 33.9 µg/mL
58 | O=C(Cc1ccccc1)NCCc1cnc[nH]1 | > 34.4 µg/mL
59 | Cc1ccc(S(=O)(=O)NCCSc2ncccn2)cc1 | > 46.4 µg/mL
